Results published in patent US20130172847A1, “Compositions for Providing Vitamin D Year Round and Uses Thereof” (priority 2002, published 2013).

Columns and labels:
[1] = Conversion of 7-DHC and/or T3 to PreD3 in ethanol under winter natural sunlight; format: physicochemical
From the text: (§1) In contrast, compositions comprising increasing amounts of T3 produce increasing amounts of PreD3 when exposed to winter sunlight.
(§2) Conversion of 7-Dehydrocholesterol (7-DHC) and/or Tachysterol (T3) to Previtamin D3 (PreD3)

[2] = Conversion of 7-DHC and/or T3 to PreD3 in cream under artificial UVB light (simulates summer sunlight); format: physicochemical; settings: for % Yield / PreD3 Formed: Cream (1 g), artificial UVB 2 min
From the text: as §1, §2

[3] = Conversion of 7-DHC and/or T3 to PreD3 in cream under winter natural sunlight; format: physicochemical; settings: Cream (1 g); natural sunlight 5-60 min; start 7-DHC 1.0 μg, T3 0 μg
From the text: as §1, §2

[4] = human skin or organic solvent exposed to 295 nm radiation; cited from earlier work
[5] = cited from earlier work
[6] = Ethanol (1 ml), natural sunlight 90 min, start 7-DHC 0 μg, T3 10 μg

Compound | % Yield [1, 6] | PreD3 Formed [1, 6] | % Yield ([2]; start 7-DHC 0 μg, T3 1 μg) | PreD3 Formed ([2]; start 7-DHC 0 μg, T3 1 μg) | conversion to PreD3 when exposed to artificial UVB light (in words) [2] | % Yield ([1]; Ethanol (1 ml), natural sunlight 90 min, start 7-DHC 10 μg, T3 0 μg) | conversion to PreD3 when exposed to winter sunlight (in words) ([1]; winter natural sunlight, summary of the table) | % Yield [3] | % Yield ([2]; start 7-DHC 1.0 μg, T3 0 μg) | PreD3 Formed ([2]; start 7-DHC 1.0 μg, T3 0 μg) | provitamin D3 converted to previtamin D3 [4] | portion of tachysterol among photoproducts ([5]; exposed to light in the range of 254 nm) | previtamin D3 produced ([5]; irradiated at 0° C. with 254 nm light, thereafter (0° C.) with 350 nm light)
CC1=C(/C=C\C2=CCC[C@]3(C)[C@@H]([C@H](C)CCCC(C)C)CC[C@@H]23)C[C@@H](O)CC1 [T3, Tachysterol] | 77% | 7.1 µg | 52% | 0.52 µg | converted to PreD3 | – | – | – | – | – | – | – | –
CC(C)CCC[C@@H](C)[C@H]1CC[C@H]2C3=CC=C4C[C@@H](O)CC[C@]4(C)[C@H]3CC[C@]12C [7-DHC, 7-Dehydrocholesterol] | – | – | – | – | converted to PreD3 | 0% | inefficiently converted to PreD3 | 0% | 26% | 0.26 µg | up to 65% | about 75% | ≤ 83%
